The values that follow come from patent publication US9624229B2, “Pyrimidine-2-amine compounds and their use as inhibitors of JAK kinases” (Rigel Pharmaceuticals, Inc., priority 2008, dated 2017).

The first assay deals with Ba/F3 V617F cells (Homo sapiens, UniProt O60674, V617F, cells depend on it). The assay can be described thus: Proliferation assay (Cell Titer-Glo, 72 h) utilizing Ba/F3 V617F cells. The conditions noted are these: Ba/F3 V617F cells, proliferation, level of activity to inhibit JAK2, read-out: IC50 (the source's name). It counts as cell-based, mouse. The method, boiled down: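 Ba/F3 V617F cells in RPMI/10% FBS, 1×10^5 cells/mL, exposed in duplicate to 3-fold serial compound dilutions (top 5 mM DMSO stock, diluted 1:250, added as 2× solution in 5% FBS medium) for 72 h at 37 °C. Viability by Cell Titer-Glo luminescence; IC50 reported.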
Ba/F3 V617F cells, sequence (O60674 whole entry V617F): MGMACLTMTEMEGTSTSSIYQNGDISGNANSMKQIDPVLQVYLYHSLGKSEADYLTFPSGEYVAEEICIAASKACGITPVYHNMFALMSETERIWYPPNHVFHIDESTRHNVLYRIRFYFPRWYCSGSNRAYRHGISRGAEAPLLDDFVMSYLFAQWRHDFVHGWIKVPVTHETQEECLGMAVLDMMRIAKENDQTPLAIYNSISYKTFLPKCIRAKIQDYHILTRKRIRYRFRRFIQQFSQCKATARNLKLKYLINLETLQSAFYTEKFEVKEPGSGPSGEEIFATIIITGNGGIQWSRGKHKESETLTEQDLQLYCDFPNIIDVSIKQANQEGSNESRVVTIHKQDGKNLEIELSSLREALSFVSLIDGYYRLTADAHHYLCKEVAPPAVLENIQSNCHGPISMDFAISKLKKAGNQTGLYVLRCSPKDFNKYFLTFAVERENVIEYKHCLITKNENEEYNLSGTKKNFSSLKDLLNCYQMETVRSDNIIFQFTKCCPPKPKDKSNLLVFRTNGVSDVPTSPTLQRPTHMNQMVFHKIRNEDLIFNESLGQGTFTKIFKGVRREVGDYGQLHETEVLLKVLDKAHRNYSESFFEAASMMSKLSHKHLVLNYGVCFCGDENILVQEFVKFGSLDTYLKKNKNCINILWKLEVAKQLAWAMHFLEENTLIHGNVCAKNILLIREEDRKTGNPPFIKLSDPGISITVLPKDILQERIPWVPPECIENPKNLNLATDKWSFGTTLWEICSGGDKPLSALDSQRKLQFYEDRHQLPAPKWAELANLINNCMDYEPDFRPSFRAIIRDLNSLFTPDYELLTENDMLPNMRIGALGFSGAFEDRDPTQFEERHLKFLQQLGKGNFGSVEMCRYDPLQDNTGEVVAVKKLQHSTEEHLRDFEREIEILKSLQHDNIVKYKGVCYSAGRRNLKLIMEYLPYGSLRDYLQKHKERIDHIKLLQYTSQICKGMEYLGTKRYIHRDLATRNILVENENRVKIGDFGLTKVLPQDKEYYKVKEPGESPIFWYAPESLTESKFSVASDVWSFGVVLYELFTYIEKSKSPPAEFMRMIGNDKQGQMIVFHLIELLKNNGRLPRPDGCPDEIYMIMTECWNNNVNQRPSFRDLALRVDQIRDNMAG
On the technique in general: ATP-based viability assays read luminescence as a measure of living cells.
`CN1C[C@@H]2C[C@H]1CN2c1ccc(Nc2nccc(-c3ccc(N4CCOCC4)nc3)n2)cc1C#N` [compound 118, 4-(6-(morpholin-4-yl)pyridin-3-yl)-N-(3-cyano-4-((1S,4S)-5-methyl-2,5-diazabicyclo[2.2.1]heptan-2-yl)phenyl)pyrimidin-2-amine]: the GI50 is under 1000 nM.

Regarding `N#Cc1cc(Nc2nccc(-c3ccc(N4CCOCC4)nc3)n2)ccc1N1C[C@@H]2C[C@H]1CN2C1CCCC1` [compound 119, 4-(6-(morpholin-4-yl)pyridin-3-yl)-N-(3-cyano-4-((1S,4S)-5-cyclopentyl-2,5-diazabicyclo[2.2.1]heptan-2-yl)phenyl)pyrimidin-2-amine], the GI50 is under 1000 nM.

Take `Cc1cc(Nc2nccc(-c3ccc(N4CCOCC4)nc3)n2)ccc1N1CCN2CCC1C2` (centres unmarked) [compound 120, 4-(6-(morpholin-4-yl)pyridin-3-yl)-N-(3-methyl-4-(1,4-diazabicyclo[3.2.1]octan-4-yl)phenyl)pyrimidin-2-amine]: the GI50 is under 1000 nM.

As for `Cc1cc(Nc2nccc(-c3ccc4c(c3)CC(=O)N4)n2)ccc1N1CCN2CCC1C2` (centres unmarked) [compound 121, 4-(2-oxoindolin-5-yl)-N-(3-methyl-4-(1,4-diazabicyclo[3.2.1]octan-4-yl)phenyl)pyrimidin-2-amine], the GI50 was under 1000 nM.

Take `Cc1cc(Nc2nccc(-c3ccc4ncn(C)c4c3)n2)ccc1N1CCN2CCC1C2` (centres unmarked) [compound 122, (1-methylbenzimidazol-6-yl)-N-(3-methyl-4-(1,4-diazabicyclo[3.2.1]octan-4-yl)phenyl)pyrimidin-2-amine]: the GI50 is under 1000 nM.

With `Cc1cc(Nc2nccc(-c3ccc4nccn4c3)n2)ccc1N1CCN2CCC1C2` (centres unmarked) [compound 123, 4-(imidazo[1,2-a]pyridin-6-yl)-N-(3-methyl-4-(1,4-diazabicyclo[3.2.1]octan-4-yl)phenyl)pyrimidin-2-amine], the GI50 was under 1000 nM.

As for `CN1C[C@@H]2C[C@H]1CN2c1ccc(Nc2nccc(-c3ccc4c(c3)NC(=O)CO4)n2)cc1F` [compound 124, 4-(2H-benzo[b][1,4]oxazin-3(4H)-on-6-yl)-N-(3-fluoro-4-((1S,4S)-5-methyl-2,5-diazabicyclo[2.2.1]heptan-2-yl)phenyl)pyrimidin-2-amine], the GI50 was under 1000 nM.

Consider `Cc1cc(Nc2nccc(-c3cnc4c(c3)OC(C)(C)C(=O)N4C)n2)ccc1N1C[C@@H]2C[C@H]1CN2C` [compound 125, 4-(2,2,4-trimethyl-3-oxo-3,4-dihydro-2H-pyrido[3,2-b][1,4]oxazin-7-yl)-N-(3-methyl-4-((1S,4S)-5-methyl-2,5-diazabicyclo[2.2.1]heptan-2-yl)phenyl)pyrimidin-2-amine], for which the GI50 is under 1000 nM.

On to `CN1C(=O)C(C)(C)Oc2cc(-c3ccnc(Nc4ccc(N5C[C@@H]6C[C@H]5CN6C)c(F)c4)n3)cnc21` [compound 126, 4-(2,2,4-trimethyl-3-oxo-3,4-dihydro-2H-pyrido[3,2-b][1,4]oxazin-7-yl)-N-(3-fluoro-4-((1S,4S)-5-methyl-2,5-diazabicyclo[2.2.1]heptan-2-yl)phenyl)pyrimidin-2-amine], for which the GI50 was under 1000 nM.

For the molecule `CC1CCCN(c2cnc(-c3ccnc(Nc4ccc(N5C[C@@H]6C[C@H]5CN6C)c(F)c4)n3)cn2)C1` (stereo partly drawn) [compound 127, 4-(5-(3-methylpiperidin-1-yl)pyrazin-2-yl)-N-(3-fluoro-4-((1S,4S)-5-methyl-2,5-diazabicyclo[2.2.1]heptan-2-yl)phenyl)pyrimidin-2-amine], the GI50 lay within 1000 to 10000 nM.

For the molecule `CN1C[C@@H]2C[C@H]1CN2c1ccc(Nc2nccc(-c3ccc(NC(=O)C(C)(C)C)cc3)n2)cc1F` [compound 128, 4-(4-(t-butylcarbonylamino)phenyl)-N-(3-fluoro-4-((1S,4S)-5-methyl-2,5-diazabicyclo[2.2.1]heptan-2-yl)phenyl)pyrimidin-2-amine], the GI50 is under 1000 nM.

As to `Cc1cc(Nc2nccc(-c3ccc(NC(=O)C(C)(C)C)cc3)n2)ccc1N1C[C@@H]2C[C@H]1CN2C` [compound 129, 4-(4-(t-butylcarbonylamino)phenyl)-N-(3-methyl-4-((1S,4S)-5-methyl-2,5-diazabicyclo[2.2.1]heptan-2-yl)phenyl)pyrimidin-2-amine], the GI50 is under 1000 nM.

As to `Cc1cc(Nc2nccc(-c3cnc4c(c3)OC(C)(C)C(=O)N4)n2)ccc1N1C[C@@H]2C[C@H]1CN2C` [compound 130, 4-(2,2-dimethyl-3-oxo-3,4-dihydro-2H-pyrido[3,2-b][1,4]oxazin-7-yl)-N-(3-methyl-4-((1S,4S)-5-methyl-2,5-diazabicyclo[2.2.1]heptan-2-yl)phenyl)pyrimidin-2-amine], the GI50 was under 1000 nM.

For `CC(=O)Nc1ccc(-c2ccnc(Nc3ccc(N4C[C@@H]5C[C@H]4CN5C)c(C)c3)n2)cn1` [compound 132, 4-(6-(acetamido)pyridin-3-yl)-N-(3-methyl-4-((1S,4S)-5-methyl-2,5-diazabicyclo[2.2.1]heptan-2-yl)phenyl)pyrimidin-2-amine], the GI50 is under 1000 nM.

In the case of `CN1C[C@@H]2C[C@H]1CN2c1ccc(Nc2nccc(-c3ccc(C(=O)Nc4ccccn4)cc3)n2)cc1F` [compound 133, 4-(4-((pyridin-2-yl)aminocarbonyl)phenyl)-N-(3-fluoro-4-((1S,4S)-5-methyl-2,5-diazabicyclo[2.2.1]heptan-2-yl)phenyl)pyrimidin-2-amine], the GI50 was 1000 to 10000 nM.

As to `Cc1cc(Nc2nccc(-c3ccc(C(=O)Nc4ccccn4)cc3)n2)ccc1N1C[C@@H]2C[C@H]1CN2C` [compound 134, 4-(4-((pyridin-2-yl)aminocarbonyl)phenyl)-N-(3-methyl-4-((1S,4S)-5-methyl-2,5-diazabicyclo[2.2.1]heptan-2-yl)phenyl)pyrimidin-2-amine], the GI50 is under 1000 nM.

On to `CN1C[C@@H]2C[C@H]1CN2c1ccc(Nc2nccc(-c3ccc(NS(C)(=O)=O)cc3)n2)cc1F` [compound 135, 4-(4-(methylsulfonylamino)phenyl)-N-(3-fluoro-4-((1S,4S)-5-methyl-2,5-diazabicyclo[2.2.1]heptan-2-yl)phenyl)pyrimidin-2-amine], for which the GI50 was under 1000 nM.

In the case of `Cc1cc(Nc2nccc(-c3ccc(NS(C)(=O)=O)cc3)n2)ccc1N1C[C@@H]2C[C@H]1CN2C` [compound 136, 4-(4-(methylsulfonylamino)phenyl)-N-(3-methyl-4-((1S,4S)-5-methyl-2,5-diazabicyclo[2.2.1]heptan-2-yl)phenyl)pyrimidin-2-amine], the GI50 was under 1000 nM.

Take `CN1C[C@@H]2C[C@H]1CN2c1ccc(Nc2nccc(-c3cnc4c(c3)OC(C)(C)C(=O)N4)n2)cc1` [compound 137, 4-(2,2-dimethyl-3-oxo-3,4-dihydro-2H-pyrido[3,2-b][1,4]oxazin-7-yl)-N-(4-((1S,4S)-5-methyl-2,5-diazabicyclo[2.2.1]heptan-2-yl)phenyl)pyrimidin-2-amine]: the GI50 was under 1000 nM.

The same assay, now with this note: inhibition of JAK2 activity, proliferation of Ba/F3 V617F cells, read-out: IC50 (the source's name).
Take `Cc1cc(Nc2nccc(-c3ccc(NC(=O)C(C)(C)C)cc3)n2)cnc1N1C[C@@H]2C[C@H]1CN2C` [compound 131, 4-(4-(t-butylcarbonylamino)phenyl)-N-(5-methyl-6-((1S,4S)-5-methyl-2,5-diazabicyclo[2.2.1]heptan-2-yl)pyridin-3-yl)pyrimidin-2-amine]: the GI50 is under 1000 nM.
